This is an account of results in ChEMBL document CHEMBL1159255, “Cardenolides from Nierembergia aristata” (1995).

One assay relates to LNCaP. Description: Cytotoxicity against human LNCAP cells. It counts as functional. The conditions noted are these: read-out: ED50 (the source's name).
Assay [1] can be described thus: Cytotoxicity against human KBVIN cells in presence of vinblastine. In kind it is functional. The conditions noted are these: read-out: ED50 (the source's name).
In another assay the test system is A-431. Description: Cytotoxicity against human A431 cells. In kind it is functional. The following applies: read-out: ED50 (the source's name).
The subject of the next assay is SK-MEL-2. Description: Cytotoxicity against human SK-MEL-2 cells. In kind it is functional. The conditions noted are these: read-out: ED50 (the source's name).
In the next assay the test system is HT. The assay can be described thus: Cytotoxicity against human HT cells. In kind it is functional. The conditions noted are these: read-out: ED50 (the source's name).
The nature of assay [2]: Cytotoxicity against human KBVIN cells in absence of vinblastine. In kind it is functional. The conditions noted are these: read-out: ED50 (the source's name).
A further assay has as its system KB. The assay can be described thus: Cytotoxicity against human KB cells. It counts as functional. The conditions noted are these: read-out: ED50 (the source's name).
Assay [3] is described as follows: Cytotoxicity against human U373 cells. It counts as functional, U-373MG ATCC. The conditions noted are these: U373 MG, read-out: ED50 (the source's name).
For another assay, the system named is Col2. The assay can be described thus: Cytotoxicity against human Col2 cells. It counts as functional. The following applies: read-out: ED50 (the source's name).
The next assay has as its system Lu1. The assay can be described thus: Cytotoxicity against human Lu1 cells. In kind it is functional. The conditions noted are these: read-out: ED50 (the source's name).
In another assay the test system is ZR-75-1. The assay can be described thus: Cytotoxicity against human ZR-75-1 cells. In kind it is functional. The conditions noted are these: read-out: ED50 (the source's name).
A short description of assay [4]: Cytotoxicity against human BC1 cells. In kind it is functional. The following applies: read-out: ED50 (the source's name).

Each structure is given as a SMILES string. ≈ marks a conversion by molar mass, not a printed value.

Regarding `C[C@H]1O[C@@H](O[C@H]2CC[C@]3(C=O)[C@H]4CC[C@]5(C)[C@@H](C6=CC(=O)OC6)CC[C@]5(O)[C@@H]4C=C[C@]3(O)C2)C[C@H](O)[C@H]1O`, the EC50 in the assay on LNCaP stood at 0.1 µg/mL (≈ 0.188 µM); in assay [1], 0.05 µg/mL; in the assay on A-431 it was 0.09 µg/mL (≈ 0.169 µM); with SK-MEL-2, 0.05 µg/mL (≈ 0.0939 µM); with HT, 0.05 µg/mL (≈ 0.0939 µM); in assay [2] it was 0.06 µg/mL (≈ 0.113 µM). Moreover, the EC50 came to 0.04 µg/mL (≈ 0.0751 µM) in the assay on KB; 0.09 µg/mL (≈ 0.169 µM) in [3]; 0.07 µg/mL (≈ 0.131 µM) in the assay with Col2; 0.03 µg/mL (≈ 0.0563 µM) in the assay with Lu1; 0.08 µg/mL (≈ 0.15 µM) in the assay with ZR-75-1; 0.04 µg/mL (≈ 0.0751 µM) in assay [4].
With `CO[C@@H]1C[C@H](O[C@H]2CC[C@]3(C=O)[C@H]4CC[C@]5(C)[C@@H](C6=CC(=O)OC6)CC[C@]5(O)[C@@H]4C=C[C@]3(O)C2)O[C@H](C)[C@H]1O`, the EC50 with LNCaP stood at 0.5 µg/mL (≈ 0.915 µM); in [1], 0.3 µg/mL; in the assay with A-431 it was 0.7 µg/mL (≈ 1.28 µM); with SK-MEL-2, 0.8 µg/mL (≈ 1.46 µM); in the assay on HT, 0.4 µg/mL (≈ 0.732 µM); in [2], 0.5 µg/mL (≈ 0.915 µM). The EC50 turned out to be 0.3 µg/mL (≈ 0.549 µM) in the assay on KB; 0.8 µg/mL (≈ 1.46 µM) in [3]; 0.9 µg/mL (≈ 1.65 µM) in the assay with Col2; 0.1 µg/mL (≈ 0.183 µM) in the assay with Lu1; 0.2 µg/mL (≈ 0.366 µM) in the assay on ZR-75-1; 0.3 µg/mL (≈ 0.549 µM) in [4].
In the case of `C[C@H]1O[C@@H](O[C@H]2CC[C@]3(C=O)[C@H]4[C@H](O)C[C@]5(C)[C@H](C6=CC(=O)OC6)CC[C@]5(O)[C@@H]4C=C[C@]3(O)C2)C[C@H](O)[C@H]1O`, the EC50 turned out to be 0.3 µg/mL (≈ 0.547 µM) in the assay on LNCaP; 0.6 µg/mL in assay [1]; 0.5 µg/mL (≈ 0.911 µM) with A-431; 4.1 µg/mL (≈ 7.47 µM) with SK-MEL-2; 2.3 µg/mL (≈ 4.19 µM) in the assay with HT; 1.6 µg/mL (≈ 2.92 µM) in assay [2]. The EC50 with KB was 0.3 µg/mL (≈ 0.547 µM); in assay [3], 0.4 µg/mL (≈ 0.729 µM); with Col2, 0.5 µg/mL (≈ 0.911 µM); with Lu1 it was 0.09 µg/mL (≈ 0.164 µM); with ZR-75-1, 0.4 µg/mL (≈ 0.729 µM); in assay [4], 0.3 µg/mL (≈ 0.547 µM).
